Experiments:
Format in all cases: in vivo
Details in all cases: x ± SD
[1] = tested on: rat COPD model; experiment: Rat COPD model: antioxidation indexes (GSH, SOD)
Method: (§1) 1.1 Preparation of Rat COPD Models
(§2) A method of establishing a rat COPD model by fumigation plus endotoxin lipopolysaccharide (LPS) endotracheal drop, which is commonly used at home and abroad at present was adopted. The period is 3 months (90 days). Specific method: on the 1st, the 15th, the 29th, the 43rd, the 57th, the 71st and the 85th days of the test, the rats were anesthetized with ethylether, the roots of tongues of the rats were pulled out, and LPS (200 ug/200 ul) was dripped through tracheas by bend gavage needle heads. The rats of the normal group were dripped with physiological saline of equal amount by the same method, and weren't fumigated. The rats of the other five groups were fumigated in a self-made fumigation bin. One side of the fumigation bin was externally connected with a negative pressure pump, and the top thereof was connected with a port for inserting cigarettes. With the negative press pump turned on, the cigarettes were lit, and the smoke of the cigarettes was absorbed into the fumigation bin. In order to prevent the animals from death caused by anoxia, 12 cigarettes were lit every time, and the lid of the fumigation bin was opened 20 min after fumigation for letting in fresh air. The operation was performed 1 h/3 times/day, with the LPS (200 ug/200 ul) being dripped through the tracheas by bend gavage needle heads.
(§3) 1.2 Pharmacological Intervention
(§4) The test was 90 days long. The pharmacological intervention was started from the 15th day, the rats of the positive group were perfused with carbocisteine, the rats of the low, medium and high test groups were perfused with different doses of test medicines, and the rats of the model group and the normal group were perfused with physiological saline of equal amount.
(§5) 1.3 Indexes Determination
(§6) Blood was taken from the orbit of each rat on the second day after the test was over, serum was separated, a complete stomach was cut and washed, lung tissue was preserved, the stomach and the right upper lung were left for pathobiology test, after the rest of the lung was subjected to lung tissue homogenate, the indexes of oxidization and antioxidation, the contents of lipid peroxide (LPO), malondialdehyde (MDA) and reduced glutathione (GSH), the activity of superoxide dismutase (SOD) and the concentration of inflammatory medium TNF-α, IL-8 and IL-6 were detected.

[2] = tested on: rat COPD model; experiment: Rat COPD model: oxidization indexes (LPO, MDA)
Method: as §1, §2, §3, §4, §5, §6

[3] = tested on: rat COPD model; experiment: Rat COPD model: inflammation indexes (TNF-α, IL-8, IL-6)
Method: as §1, §2, §3, §4, §5, §6

Compound: S-(carboxymethyl)-D-cysteine arginine salt monohydrate [D-arginine]
- GSH Lung tissue ([1]; high dose group): 114.54 ± 20.57 µmol/L
- GSH Serum ([1]; high dose group): 144.17 ± 27.40 µmol/L
- SOD Lung tissue ([1]; high dose group): 62.24 ± 16.47 U/mL
- SOD Serum ([1]; high dose group): 92.32 ± 20.65 U/mL
- GSH Lung tissue ([1]; low dose group): 92.23 ± 13.38 µmol/L
- SOD Lung tissue ([1]; low dose group): 46.86 ± 19.25 U/mL
- SOD Serum ([1]; low dose group): 74.53 ± 8.70 U/mL
- GSH Lung tissue ([1]; medium dose group): 107.77 ± 18.26 µmol/L
- SOD Lung tissue ([1]; medium dose group): 54.4 ± 12.18 U/mL
- SOD Serum ([1]; medium dose group): 83.74 ± 15.27 U/mL
- LPO Lung tissue ([2]; high dose group): 18.74 ± 3.47 nmol/mL
- LPO Serum ([2]; high dose group): 5.26 ± 0.88 nmol/mL
- MDA Lung tissue ([2]; high dose group): 4.58 ± 0.66 µmol/mL
- LPO Lung tissue ([2]; low dose group): 21.98 ± 2.16 nmol/mL
- LPO Serum ([2]; low dose group): 6.32 ± 1.34 nmol/mL
- MDA Lung tissue ([2]; low dose group): 5.21 ± 0.72 µmol/mL
- MDA Serum ([2]; low dose group): 8.66 ± 2.20 µmol/mL
- LPO Lung tissue ([2]; medium dose group): 20.62 ± 3.65 nmol/mL
- LPO Serum ([2]; medium dose group): 5.80 ± 1.07 nmol/mL
- MDA Lung tissue ([2]; medium dose group): 5.01 ± 0.41 µmol/mL
- IL-6 Lung tissue ([3]; high dose group): 13.69 ± 4.33 pg/mL
- IL-6 Serum ([3]; high dose group): 8.70 ± 2.35 pg/mL
- IL-8 Lung tissue ([3]; high dose group): 10.82 ± 2.59 pg/mL
- IL-8 Serum ([3]; high dose group): 7.74 ± 1.28 pg/mL
- TNF-α Lung tissue ([3]; high dose group): 24.40 ± 6.09 pg/mL
- TNF-α Serum ([3]; high dose group): 19.73 ± 6.08 g* pg/mL
- IL-6 Lung tissue ([3]; low dose group): 17.03 ± 7.27 pg/mL
- IL-6 Serum ([3]; low dose group): 11.07 ± 2.60 pg/mL
- IL-8 Lung tissue ([3]; low dose group): 12.69 ± 2.33 pg/mL
- IL-8 Serum ([3]; low dose group): 9.70 ± 1.35 pg/mL
- TNF-α Lung tissue ([3]; low dose group): 30.10 ± 9.44 pg/mL
- TNF-α Serum ([3]; low dose group): 23.12 ± 4.20 pg/mL
- IL-6 Lung tissue ([3]; medium dose group): 15.44 ± 5.64 pg/mL
- IL-6 Serum ([3]; medium dose group): 10.38 ± 3.54 pg/mL
- IL-8 Lung tissue ([3]; medium dose group): 12.01 ± 2.11 pg/mL
- IL-8 Serum ([3]; medium dose group): 8.26 ± 2.67 pg/mL
- TNF-α Lung tissue ([3]; medium dose group): 28.28 ± 13.57 pg/mL
- TNF-α Serum ([3]; medium dose group): 20.09 ± 5.10 pg/mL

Compound: S-(carboxymethyl)-L-cysteine arginine salt monohydrate [L-arginine]
- GSH Lung tissue ([1]; high dose group): 128.45 ± 24.09 µmol/L
- SOD Lung tissue ([1]; high dose group): 72.36 ± 14.55 U/mL
- SOD Serum ([1]; high dose group): 116.34 ± 27.86 U/mL
- GSH Lung tissue ([1]; low dose group): 102.45 ± 18.97 µmol/L
- GSH Serum ([1]; low dose group): 134.21 ± 26.45 µmol/L
- SOD Lung tissue ([1]; low dose group): 55.67 ± 13.29 U/mL
- SOD Serum ([1]; low dose group): 82.67 ± 19.45 U/mL
- GSH Lung tissue ([1]; medium dose group): 116.22 ± 22.73 µmol/L
- GSH Serum ([1]; medium dose group): 159.33 ± 30.20 µmol/L
- SOD Lung tissue ([1]; medium dose group): 65.44 ± 17.33 U/mL
- SOD Serum ([1]; medium dose group): 93.20 ± 20.77 U/mL
- LPO Lung tissue ([2]; high dose group): 16.09 ± 3.22 nmol/mL
- LPO Serum ([2]; high dose group): 4.25 ± 0.99 nmol/mL
- MDA Lung tissue ([2]; high dose group): 3.96 ± 0.57 µmol/mL
- MDA Serum ([2]; high dose group): 6.79 ± 1.83 µmol/mL
- LPO Lung tissue ([2]; low dose group): 19.66 ± 3.90 nmol/mL
- LPO Serum ([2]; low dose group): 5.78 ± 1.65 nmol/mL
- MDA Lung tissue ([2]; low dose group): 4.77 ± 0.72 µmol/mL
- MDA Serum ([2]; low dose group): 8.02 ± 1.54 µmol/mL
- LPO Lung tissue ([2]; medium dose group): 17.78 ± 2.98 nmol/mL
- LPO Serum ([2]; medium dose group): 4.87 ± 1.90 nmol/mL
- MDA Lung tissue ([2]; medium dose group): 4.40 ± 0.60 µmol/mL
- MDA Serum ([2]; medium dose group): 7.34 ± 2.44 µmol/mL
- IL-6 Lung tissue ([3]; high dose group): 12.77 ± 4.65 pg/mL
- IL-6 Serum ([3]; high dose group): 6.69 ± 1.92 pg/mL
- IL-8 Lung tissue ([3]; high dose group): 9.09 ± 1.89 pg/mL
- IL-8 Serum ([3]; high dose group): 6.24 ± 1.89 pg/mL
- TNF-α Lung tissue ([3]; high dose group): 20.36 ± 7.41 pg/mL
- TNF-α Serum ([3]; high dose group): 15.7 ± 5.16 pg/mL
- IL-6 Lung tissue ([3]; low dose group): 15.80 ± 6.02 pg/mL
- IL-6 Serum ([3]; low dose group): 9.17 ± 3.08 pg/mL
- IL-8 Lung tissue ([3]; low dose group): 11.88 ± 303 pg/mL
- IL-8 Serum ([3]; low dose group): 8.56 ± 2.33 pg/mL
- TNF-α Lung tissue ([3]; low dose group): 26.17 ± 8.33 pg/mL
- TNF-α Serum ([3]; low dose group): 20.22 ± 4.77 pg/mL
- IL-6 Lung tissue ([3]; medium dose group): 14.22 ± 5.13 pg/mL
- IL-6 Serum ([3]; medium dose group): 7.66 ± 2.83 pg/mL
- IL-8 Lung tissue ([3]; medium dose group): 9.98 ± 2.43 pg/mL
- IL-8 Serum ([3]; medium dose group): 7.39 ± 2.02 pg/mL
- TNF-α Lung tissue ([3]; medium dose group): 23.65 ± 11.21 pg/mL
- TNF-α Serum ([3]; medium dose group): 18.6 ± 3.89 pg/mL

Compound: N.N.N[C@H](CSCC(=O)O)C(=O)O.O [D-ammonium, S-(carboxymethyl)-D-cysteine ammonium salt monohydrate]
- GSH Lung tissue ([1]; high dose group): 120.13 ± 25.76 µmol/L
- GSH Serum ([1]; high dose group): 158.76 ± 29.50 µmol/L
- SOD Lung tissue ([1]; high dose group): 70.51 ± 20.90 U/mL
- SOD Serum ([1]; high dose group): 98.28 ± 19.15 U/mL
- GSH Lung tissue ([1]; low dose group): 94.54 ± 17.50 µmol/L
- GSH Serum ([1]; low dose group): 120.16 ± 17.05 µmol/L
- SOD Lung tissue ([1]; low dose group): 52.17 ± 16.44 U/mL
- SOD Serum ([1]; low dose group): 72.30 ± 12.66 U/mL
- GSH Lung tissue ([1]; medium dose group): 109.68 ± 24.63 µmol/L
- GSH Serum ([1]; medium dose group): 131.33 ± 24.17 µmol/L
- SOD Lung tissue ([1]; medium dose group): 60.31 ± 14.12 U/mL
- SOD Serum ([1]; medium dose group): 88.85 ± 17.47 U/mL
- LPO Lung tissue ([2]; high dose group): 17.33 ± 4.07 nmol/mL
- LPO Serum ([2]; high dose group): 4.97 ± 1.74 nmol/mL
- MDA Lung tissue ([2]; high dose group): 4.35 ± 0.63 µmol/mL
- MDA Serum ([2]; high dose group): 7.05 ± 1.59 µmol/mL
- LPO Lung tissue ([2]; low dose group): 20.35 ± 3.70 nmol/mL
- LPO Serum ([2]; low dose group): 6.07 ± 1.55 nmol/mL
- MDA Lung tissue ([2]; low dose group): 5.12 ± 1.11 µmol/mL
- MDA Serum ([2]; low dose group): 8.28 ± 2.09 µmol/mL
- LPO Lung tissue ([2]; medium dose group): 18.38 ± 2.86 nmol/mL
- LPO Serum ([2]; medium dose group): 5.20 ± 0.96 nmol/mL
- MDA Lung tissue ([2]; medium dose group): 4.90 ± 0.43 µmol/mL
- MDA Serum ([2]; medium dose group): 7.75 ± 1.93 µmol/mL
- IL-6 Lung tissue ([3]; high dose group): 13.83 ± 6.19 pg/mL
- IL-6 Serum ([3]; high dose group): 7.93 ± 3.10 pg/mL
- IL-8 Lung tissue ([3]; high dose group): 11.44 ± 1.64 pg/mL
- IL-8 Serum ([3]; high dose group): 7.38 ± 1.54 pg/mL
- TNF-α Lung tissue ([3]; high dose group): 21.33 ± 8.57 pg/mL
- TNF-α Serum ([3]; high dose group): 17.19 ± 4.05 pg/mL
- IL-6 Lung tissue ([3]; low dose group): 16.36 ± 4.78 pg/mL
- IL-6 Serum ([3]; low dose group): 10.76 ± 2.90 pg/mL
- IL-8 Lung tissue ([3]; low dose group): 13.09 ± 2.98 pg/mL
- IL-8 Serum ([3]; low dose group): 8.56 ± 2.79 pg/mL
- TNF-α Lung tissue ([3]; low dose group): 28.26 ± 12.06 pg/mL
- TNF-α Serum ([3]; low dose group): 21.12 ± 4.11 pg/mL
- IL-6 Lung tissue ([3]; medium dose group): 15.61 ± 4.40 pg/mL
- IL-6 Serum ([3]; medium dose group): 9.09 ± 3.23 pg/mL
- IL-8 Lung tissue ([3]; medium dose group): 11.90 ± 1.77 pg/mL
- IL-8 Serum ([3]; medium dose group): 8.05 ± 1.72 pg/mL
- TNF-α Lung tissue ([3]; medium dose group): 25.02 ± 10.89 pg/mL
- TNF-α Serum ([3]; medium dose group): 19.86 ± 3.58 pg/mL
